# Measurements reported in patent US20180042827A1, “METHOD OF PROTECTING SKIN FROM ULTRAVIOLET RADIATION” (FIC BIOTECH INC., priority 2016, published 2018).
# “Also recorded” adds a separate entry of the source.
# Tests used:
# Format in all cases: cell-based, human
# HFF3 cells = experiment: Intracellular lipid peroxidation (C11-BODIPY 581/591 fluorescence) after UVA irradiation; details: pretreated, 50 KJ/m^2 UVA, versus only UVA-treated cells
# Description: (§1) When cells were seeded in culture dish for overnight incubation, 200 μM of compound (I-1) was added to the cells for 2 hours before UVA irradiation.
# (§2) When the ROS attacks the C11-BODIPY^581/591 on the cell membrane, it will emit fluorescent light (excitation light: 488 nm, scattered light: 510-665 nm).
# (§3) After treating 10 μM C11-BODIPY^581/591 for 30 minutes at 37° C., the cells were washed with HEPES buffer (4-(2-hydroxyerhyl)-piperazine-1-erhanesulfonic acid, HEPES) and were observed by using the laser scanning confocal microscope.
# [1] = test system: HFF1 cells (G6PD deficient skin fibroblast); experiment: as above; details: pretreated, 50 KJ/m^2 UVA, versus only UVA-treated cells
# Description: as §1, §2, §3
# [2] = test system: HFF-1 cells (G6PD deficient skin fibroblast); experiment: TUNEL analysis of apoptotic cell death after UVA irradiation; details: 200 μM added prior to UVA (50 KJ/cm^2), UVA alone ca 80%
# Description: as §1
# (§4) Apoptotic cell death was assayed by using an Apo-BrdU in situ DNA fragmentation assay kit. This kit measures the fragmented DNA of apoptotic cells by catalytically incorporating fluorescein-12-dUTP at 3′-OH DNA ends using the terminal deoxynucleotidyl transferase enzyme. The fluorescein-12-dUTP-labeled DNA can then be visualized by confocal scanning microscope and quantified by using software.
# HFF-3 cells [3] = experiment: as above; details: 200 μM added prior to UVA (50 KJ/cm^2), UVA alone ca 40%
# Description: as §1, §4
# [4] = test system: HFF-1 cells (G6PD deficient skin fibroblast); experiment: Intracellular glutathione (GSH) depletion (CMF-DA fluorescence) after UVA irradiation; details: 200 μM added prior to UVA irradiation (25, 50 and 100 KJ/cm^2)
# Description: as §1
# (§5) Glutathione (GSH) fluorescent dye: 10 μM of 5-chloromethyl fluorescein diacetate (CMF-DA). When CMF-DA enters the cells, the trapped CMF reacts with the GSH to form a fluorescent compound which to emit fluorescent light (excitation light: 492 nm, scattered light: 517 nm).
# (§6) HFF-3 and HFF-1 cells were cultivated and irradiated with various dosages of UVA (25, 50 and 100 KJ/cm^2). The culture medium was then replaced with new medium and treated with […] CMF-DA probe for 30 minutes at 37° C. in the dark. Cells were detached by trypsinization, collected by centrifugation and resuspended in PBS. The intracellular GSH contents, as reflected by the green fluorescence intensity of CMF-GSH, were then observed using laser scanning confocal microscope.
# HFF-3 cells [5] = experiment: as above; details: 200 μM added prior to UVA irradiation (25, 50 and 100 KJ/cm^2)
# Description: as §1, §5, §6
# [6] = test system: HFF-1 cells (G6PD deficient skin fibroblast); experiment: Calcium detection of cytoplasm and mitochondria (Fluo-4 / Rhod-2) after UVA irradiation; details: 200 μM added prior to UVA (50 KJ/cm^2)
# Description: as §1
# (§7) Calcium mobilization detection dye: 1.5 μM of RHOD-2/AM (rhod-2) is a cell-permeable fluorescent probe for measuring calcium (Ca^2+) in mitochondria (excitation light: 543 nm, scattered light: 581 nm), and 2 μM of FLUO-4/AM (fluo-4) is a cell-permeable fluorescent probe for measuring calcium (Ca^2+) in cytoplasm (excitation light: 488 nm, scattered light: 516 nm).
# (§8) HFF-3 and HFF-1 cells were cultivated and irradiated with UVA (50KJ/cm^2). The culture medium was then replaced with new medium and treated with 2 μM Flou-4 and 1.5 μM of Rhod-2 (for the detection of mitochondrial calcium) for 30 minutes at 37° C. in the dark. Rhod-2 is a cationic rhodamine-based indicator probe and it can accumulate preferentially in potential-driven uptake in mitochondria. The resting mitochondrial calcium concentration is generally in the range of 100-150 nM. At this level of calcium, the brownish red fluorescence of Rhod-2 is minimal. However, when large excess of calcium ions are uptaken by the mitochondria, concentration-dependent increases in the intensities of Rhod-2 fluorescence will occur. The phenomenon is a testimony of mitochondrial calcium overload.
# HFF-3 cells [7] = experiment: as above; details: 200 μM added prior to UVA (50 KJ/cm^2)
# Description: as §1, §7, §8
# [8] = test system: HFF-1 cells (G6PD deficient skin fibroblast); experiment: Intracellular ROS detection (DCF-DA fluorescence) after UVA irradiation; details: 200 μM added prior to UVA irradiation (25, 50 and 100 KJ/cm^2)
# Description: as §1
# (§9) Reactive oxygen species (ROS) fluorescent dye: when 10 μM of 2′,7′-dichlorodihydrofluorescindiacetate (DCF-DA) enters the cells, DCF trapped is oxidized by the ROS and emits fluorescent light (excitation light: 488 nm, scattered light: 525 nm).
# (§10) HFF-3 and HFF-1 cells were cultivated and irradiated with various dosages of UVA (25, 50 and 100 KJ/cm^2). The culture medium was then replaced with new medium and treated with 10 μM of DCF-DA probe for 30 minutes at 37° C. in the dark. Cells were detached by trypsinization, collected by centrifugation and resuspended in PBS. The intracellular ROS, as reflected by the DCF green fluorescence, were then observed using laser scanning confocal microscope.
# HFF-3 cells [9] = experiment: as above; details: 200 μM added prior to UVA irradiation (25, 50 and 100 KJ/cm^2)
# Description: as §1, §9, §10
compound,measurement,setting,value
"COC(=O)c1cc(O)c(O)c(O)c1 [compound (I-1), methyl gallate]",intracellular lipid peroxidation (green fluorescent intensity of C11-BODIPY 581/591),HFF3 cells,weaker than that of the only UVA-treated cells; also recorded: significant decline of green fluorescence
same,intracellular lipid peroxidation (green fluorescent intensity of C11-BODIPY 581/591),[1],weaker than that of the only UVA-treated cells; also recorded: significant decline of green fluorescence
same,TUNEL-positive cell population,[2],18%
same,TUNEL-positive cell population,HFF-3 cells [3],8%
same,intracellular GSH depletion (green fluorescence of CMF-GSH),[4],nearly complete protection of GSH depletion; also recorded: nearly complete recovery of green fluorescence
same,intracellular GSH depletion (green fluorescence of CMF-GSH),HFF-3 cells [5],nearly complete protection of GSH depletion; also recorded: nearly complete recovery of green fluorescence
same,mitochondrial calcium overload (brownish red fluorescence of Rhod-2),[6],drastic decrease in brownish red fluorescence intensity; also recorded: could effectively be suppressed
same,mitochondrial calcium overload (brownish red fluorescence of Rhod-2),HFF-3 cells [7],can prevent calcium overload in mitochondria; also recorded: could effectively be suppressed
same,production of intracellular ROS (DCF fluorescence),[8],almost completely suppressed; also recorded: nearly complete suppression of ROS production
same,production of intracellular ROS (DCF fluorescence),HFF-3 cells [9],almost completely suppressed
